The data set can be described thus: in vitro. To be noted: human, hela cells, % viability.

Among the data in article PMC12040169 (PLOS Biology, 2025) are viability values, retold here.

By viability is commonly meant a read-out of living cells in per cent, often relative to untreated cells. For the compound `CCc1c(C)nc2c(C(=O)NCCCOC)cnn2c1C` [CBK162149], the viability at 28.5 h, 10 µM is 82.2%.
The same measure, in the same setting: the figure for `CCc1ccc(C(O)CNC2CCN(Cc3cscn3)CC2)cc1` (stereo not drawn) [CBK304733] is 108%; for `O=C(O)COCc1nn(-c2ccc(Br)cc2)c2c1CCCC2` [CBK016404] it is 98.6%.
On the same count and under the same terms, as for `FC(F)(F)c1cccc(-n2cc(-c3cccnc3)nn2)c1` [CBK113053], the figure is 86%; as for `O=C(NCc1ccccc1)C(Cc1ccc([N+](=O)[O-])cc1)N1C(=O)c2ccccc2C1=O` (stereo not drawn) [CBK261279], 95.9%; as for `CCn1c(C)nc2cc(C(=O)NC3CCCOC3)ccc21` (stereo not drawn) [CBK282066], 92.5%.
Still for that read-out and setting: as for `CN1CCN(CCOC(=O)N2CCCC(F)(F)C2)CC1` [CBK200208], the figure is 105%; as for `CC(=O)Oc1ccc(C(=O)Nc2ccc3c(c2)C(=O)N(CCC(=O)O)C3=O)cc1` [CBK265997], 105%.
`CC(Nc1cccc2ccccc12)C(=O)N/N=C/c1ccc([N+](=O)[O-])cc1` (stereo not drawn) [CBK262676]: the viability at 28.5 h, 10 µM worked out at 84.2%.
Still for that read-out and setting: the figure for `CC(N)(Cc1ccc(Oc2ncc(C(F)(F)F)cc2Cl)cc1)C(=O)O` (stereo not drawn) [CBK161647] is 91.9%; for `O=C1CC(c2ccc(Br)cc2)Nc2ccc3ccccc3c21` (stereo not drawn) [CBK094798] it is 93.4%.
On the same count and under the same terms, as for `CN(CCO)c1ccc(C(=O)N2CCC(N3CCOCC3)CC2)cn1` [CBK306899], the figure is 97%.
Same read-out and setting: the figure for `c1nc(OC2CCOC2)cc(N2CCCC2)n1` (stereo not drawn) [CBK115899] is 88.4%; for `CCCc1n[nH]c(-c2cccc(C)c2C)c1C(=O)OCC` [CBK113545] it is 106%.
Consider `OCCN(CCO)c1cncc(-c2cccc3ccccc23)n1` [CBK065812], for which the viability at 28.5 h, 10 µM came out at 84.5%.
The same measure, in the same setting: the figure for `CCCN1CCCC(c2ccccc2O)C1` (stereo not drawn) [CBK024365G] is 95.3%; for `Cc1cc(S(=O)(=O)N2CCN(CCO)C(C)C2)sc1Cl` (stereo not drawn) [CBK304074] it is 91.4%.
On the same count and under the same terms, as for `COc1ccc(C(=O)Nc2ccc(C3c4ccsc4CCN3C(C)=O)cc2)cc1` (stereo not drawn) [CBK286465], the figure is 85%; as for `CN(C)c1cccc(-c2cc(N3CCN(c4ccccn4)CC3)ncn2)c1` [CBK037825], 104%; as for `COc1ccc(C(C)C)cc1-c1cnc2[nH]c(=O)n([C@@H](CO)C(C)C)c2n1` [CBK064495], 90.3%.
Same read-out and setting: the figure for `Cc1sc2nc(SCc3nc4ccccc4[nH]3)n(Cc3ccco3)c(=O)c2c1C` [CBK267554] is 112%.
`c1csc(CNc2c(-c3cccs3)nc3cnccn23)c1` [CBK283685]: the viability at 28.5 h, 10 µM turned out to be 92.7%.
In the case of `c1ccc(-c2ccc(Nc3ccc4c(c3)OCCO4)nc2)cc1` [CBK037802], the viability at 28.5 h, 10 µM came to 98.3%.
On the same count and under the same terms, the figure for `O=C(CN1CCCC2(CCN(C(=O)c3ccoc3)C2)C1)Nc1ccc(F)c(Cl)c1` (stereo not drawn) [CBK132822] is 92.7%.
Still for that read-out and setting: as for `COc1ccc(CN2CC[C@H]3NC(=O)CNC(=O)C4(C/C=C/C[C@H]3C2)CCN(C(C)=O)CC4)cc1` [CBK292013], the figure is 90.4%; as for `CCOc1ccccc1N1C(=O)CC(Sc2nc(-c3ccccc3)c3cc(Cl)ccc3n2)C1=O` (stereo not drawn) [CBK265405], 116%.
The same measure, in the same setting: the figure for `COCCCOc1cncc(N2CCCC2)n1` [CBK115759] is 92.4%; for `O=C(Nc1nnc(-c2ccco2)o1)c1cccc(C(F)(F)F)c1` [CBK287422] it is 88.6%; for `CCCn1c(SCC(=O)N2c3ccc(F)cc3CCC2C)nnc1-c1cccnc1` (stereo not drawn) [CBK059187] it is 94%.
For the compound `O=C(O)C1CNC(=O)N1C(=O)OCc1ccccc1` (stereo not drawn) [CBK057462], the viability at 28.5 h, 10 µM worked out at 98.8%.
In the case of `Cc1cccc(N2C(=O)/C(=C/c3ccccc3OCc3ccc(C(=O)O)cc3)C(=O)NC2=S)c1` [CBK264100], the viability at 28.5 h, 10 µM (bulk resorufin, single well) turned out to be 95.3%.
`Cc1c(C)[n+]([O-])c2cc(N3CCN(C)CC3)c(Cl)cc2[n+]1[O-]` [CBK263503]: the viability at 28.5 h, 10 µM was found to be 96.3%.
On the same count and under the same terms, as for `O=C(Nc1ccc2c(c1)C1C=CCC1C(C(=O)O)N2)c1ccc(Cl)cc1Cl` (stereo not drawn) [CBK112584], the figure is 105%; as for `COc1cc(C(C)=O)ccc1OC(=O)CN1C(=O)c2ccccc2C1=O` [CBK262392], 112%.
Same read-out and setting: as for `Sc1nnc2sc3ccccc3n12` [CBK018156], the figure is 103%.
Still for that read-out and setting: as for `Cc1ccc(C#N)cc1S(=O)(=O)NC(=O)COCC1CC1` [CBK304427], the figure is 113%; as for `CCCN1CCCC(c2cccc(O)c2)C1` (stereo not drawn) [CBK016405B], 92.6%; as for `O=C(c1ccc(Br)o1)n1cc(C(F)(F)F)ccc1=O` [CBK022391], 108%.
Turning to `CCC(CO)Nc1nccnc1-c1cccs1` (stereo not drawn) [CBK036800], the viability at 28.5 h, 10 µM worked out at 98.3%.
The same measure, in the same setting: the figure for `CC1CCCC(C)N1C(=O)C1CCCCC1C(=O)O` (stereo not drawn) [CBK026624] is 93.2%.
Turning to `COc1ccc(CCN2CCC(Oc3nccnc3OCc3cccnc3)CC2)cc1OC` [CBK083179T], the viability at 28.5 h, 10 µM is 99%.
Still for that read-out and setting: as for `CSc1nc(O)c(C(c2ccc(Cl)cc2)c2c(O)nc(SC)nc2O)c(O)n1` [CBK265306], the figure is 105%; as for `COCCn1c(-c2ccc(CN3CCCC3)cc2)cc2onc(C)c2c1=O` [CBK050385C], 104%; as for `O=S(=O)(c1cccs1)N1CCc2ccccc2C1` [CBK044531], 113%.
The same measure, in the same setting: the figure for `Cn1cc(CCC(=O)N2CCN(Cc3ccccn3)CC2)cn1` [CBK305094] is 113%.
The same measure, in the same setting: the figure for `Cc1ccccc1C(=O)N1CCN(S(=O)(=O)c2sc(C(=O)O)c(C)c2C(=O)O)CC1` [CBK297146] is 102%; for `O=C(O)C1C2CCC(O2)C1C(=O)Nc1ccc2c(c1)OCCO2` (stereo not drawn) [CBK263677] it is 103%; for `C#CCNS(=O)(=O)c1ccc(C(=O)Nc2ccnn2Cc2ccccc2)cc1` [CBK297727] it is 96.4%.
In the case of `O=C(Cn1cc(/C=C2/C(=O)NC(=S)N(c3ccc(Cl)cc3)C2=O)c2ccccc21)Nc1ccccc1` [CBK263535], the viability at 28.5 h, 10 µM (bulk resorufin, single well) is 98.4%.
Regarding `COc1ccc(CNC(=O)c2cc(S(=O)(=O)N3CCCC3)cn2C)cc1` [CBK304637], the viability at 28.5 h, 10 µM came out at 95.2%.
Still for that read-out and setting: as for `COc1ccc(-c2cc(C(=O)NCCc3ccc(N)cc3)cnc2-c2ccc(Cl)cc2)cc1` [CBK037561], the figure is 91.6%; as for `O=C(Nn1cnnc1)c1ccc(C(=O)Nn2cnnc2)cc1` [CBK261111], 101%; as for `CCOC(=O)c1ccc(NC(=S)NCCN(CC)CC)cc1` [CBK018358], 104%.
Still for that read-out and setting: the figure for `CCN1CCCC1CNC(=O)c1cc(Br)cnc1N(C)C(C)=O` (stereo not drawn) [CBK076524] is 85.2%; for `CCc1[nH]nc(O)c1Cc1c(Cl)cccc1Cl` [CBK105304] it is 115%; for `CC[C@@H](Cn1nc2c(cc1=O)CCCCC2)NC(=O)c1ccco1` [CBK284553] it is 78.2%.
Turning to `O=C(C1CC(O)CN1)N1CC2(CCCC2)c2c(F)cccc21` (stereo not drawn) [CBK304269C], the viability at 28.5 h, 10 µM amounted to 99%.
For `CCc1nnc(N/N=C/c2cc(Cl)c(OCc3ccccc3F)c(OC)c2)n1N` [CBK278282C], the viability at 28.5 h, 10 µM was found to be 85.4%.
On to `Nc1ncnc(NCCCc2ccccc2)c1[N+](=O)[O-]` [CBK267261], for which the viability at 28.5 h, 10 µM stood at 88.9%.
On the same count and under the same terms, as for `COc1ccccc1-c1nccnc1N[C@@H](CO)C(C)C` [CBK089034], the figure is 93.6%; as for `Cc1ccc(CN(Cc2c[nH]cn2)C2CC(C)(C)NC(C)(C)C2)o1` [CBK283175], 91%.
Regarding `Cc1cc(O)cc(C2CCCN(C(=O)CC3CCCC3)C2)n1` (stereo not drawn) [CBK283422], the viability at 28.5 h, 10 µM was found to be 107%.
As to `Cc1onc(-c2ccccc2Cl)c1C(=O)N(Cc1nc(-c2ccccc2)no1)C(C)C` [CBK269289], the viability at 28.5 h, 10 µM came to 113%.
Still for that read-out and setting: the figure for `CC(C)Cc1[nH]nc(O)c1-c1ccccc1` [CBK075134] is 103%; for `COc1ccccc1CN(CCCn1ccnc1)Cc1ccoc1` [CBK283123] it is 97.2%.
Regarding `CCc1cc(C(=O)NC(Cn2ccnc2)C(C)(C)C)cc(=O)[nH]1` (stereo not drawn) [CBK304410], the viability at 28.5 h, 10 µM was 101%.
Still for that read-out and setting: the figure for `Cc1ccc(Cl)cc1NC(=O)c1cc(NC(=O)C2CCCCC2C(=O)O)ccc1N1CCCCC1` (stereo not drawn) [CBK268371] is 87%; for `O=C(O)/C=C\C(=O)Nc1ccc(OCC(=O)O)cc1` [CBK264449] it is 102%.
The same measure, in the same setting: the figure for `COC(=O)c1nc(Cl)c(Cl)nc1NS(=O)(=O)c1cccc(Cl)c1C` [CBK004709] is 91.8%.
On to `CCNC(=O)Nc1cc2cccnc2nc1-c1cccc(C(F)(F)F)c1` [CBK070645], for which the viability at 28.5 h, 10 µM came out at 94.1%.
Still for that read-out and setting: the figure for `CCOc1ccc(-c2ccnc(N3CCC(N(C)C)C3)n2)cc1C(=O)O` (stereo not drawn) [CBK307241] is 95%; for `COc1ccccc1CC(=O)N1C2CCC1CC(O)(c1ccco1)C2` (stereo not drawn) [CBK284106] it is 88.8%.
As for `O=C(O)c1cccc(Sc2cc(N3CCCC3)ncn2)c1` [CBK093586], the viability at 28.5 h, 10 µM worked out at 113%.
Consider `N#CC1(c2ccccc2)CCN(C(=O)c2ccc([N+](=O)[O-])o2)CC1` [CBK091389], for which, under “bulk resorufin, single well”, the viability at 28.5 h, 10 µM amounted to 95.7%.
Still for that read-out and setting: as for `CN1C(=O)C(=CNCCN2CCN(C(=S)Nc3ccccc3)CC2)C(=O)N(C)C1=O` [CBK262858], the figure is 97.5%.
With `COC1CCCC(C(=O)NC(Cc2ccsc2)c2cccnc2)C1` (stereo not drawn) [CBK284654], the viability at 28.5 h, 10 µM came to 84.4%.
The same measure, in the same setting: the figure for `CC(=O)Nc1ccc(S(=O)(=O)Nc2ccc(C(=O)N3CCN(C)CC3)cc2)cc1` [CBK050406] is 93.1%.
Still for that read-out and setting: the figure for `Brc1cn2ccnc2c(N2CCCC2)n1` [CBK085449] is 117%; for `CN1CCN(CCCNC(=O)N(C)C2CCN(C)C2)CC1` (stereo not drawn) [CBK155993] it is 96.4%.
Still for that read-out and setting: as for `Nc1nonc1-c1nc2ccccc2n1Cc1ccc(-c2nn[nH]n2)cc1` [CBK267648], the figure is 91.3%; as for `CC(NCCCN(C)C)=C1C(=O)c2ccccc2C1=O` [CBK262674], 81.6%.
